From US20050256161A1, “Melanin concentrating hormone receptor antagonists” (priority 2003, published 2005)

How the values were obtained:
[1] = target: T1, human MCH 1 receptor (hMCH1R) (Homo sapiens, UniProt Q99705); experiment: Ligand binding assay (125I native-MCH), hMCH; details: hMCH1R expressed in HEK 293, membranes, 0.2 nM 125I native-MCH
T1 construct: expressed in transfected cells; host or cells: HEK 293 (membrane preparation)
Procedure: (§1) Human embryonic kidney cells (293 total) expressing either human, rat, or mouse MCH receptor were harvested from 150 mm culture dishes using PBS. Spinning at 1500 rpm for 2 minutes initially pelleted cells. The resulting pellet was then homogenized in 15 mL ice cold sucrose buffer (25 mM HEPES, 0.3 M sucrose, pH 7.4) with a motorized, glass fitted, Teflon® homogenizer. The homogenate was centrifuged at 48,000×g at 4° C. for 10 minutes, resuspended in 15 mL assay buffer (25 mM HEPES, 10 mM MgCl2, 0.2% BSA, 0.1 mg/mL STI, 0.1 mg/mL Pefabloc®, 1 μM Phosphoramidon, pH 7.4) with a Tissue-Tearor® (Biospec Products) and centrifuged again at 48,000×g for 10 minutes. The pellet was homogenized for a third time in 15 mL assay buffer using the Tissue-Tearor® and again centrifuged at 48,000×g for 10 minutes. The resulting pellet was resuspended in assay buffer at a wet weight concentration of 10-20 mg/mL.
(§2) Binding assays were determined as described below using mouse, rat or human MCH 1 receptors (mMCH1R, rMCH1R, and hMCH1R, respectively) expressed in HEK 293; IC50 values were calculated.
(§3) Binding assays were performed in 96-well U-bottom plates. Membranes (100 μg tissue) were incubated at 30° C. for 90 minutes in assay buffer with various peptides in the presence of 0.2 nM 125I native-MCH (Perkin-Elmer Life Sciences, Boston, Mass.) in 100 μL total volume. Non-specific binding was assessed in the presence of 1 μM cold native-MCH. The reaction was terminated by rapid filtration through Unfilter-96 GF/C glass fiber filter plates (FilterMate® 196 Harvester, Packard Instrument Co., Meriden, Conn.) pre-soaked in PBS/0.5% BSA, followed by three washes with 300 μL ice-cold water. Bound radioactivity was determined using a TopCount® microplate scintillation and luminescence counter (Packard Instrument Co., Meriden, Conn.). Nonlinear regression analyses of drug concentration curves were performed using GraphPad Prism® (GraphPad Software, Inc., San Diego, Calif.).

rat MCH1 receptor = target: T2, rat MCH1 receptor (Rattus norvegicus, UniProt P97639); experiment: rMCH FLIPR calcium mobilization functional assay; assay type: cell-based; details: CHOK1-Gqi cells
T2 construct: expressed in transfected cells
T2 sequence (P97639 whole entry): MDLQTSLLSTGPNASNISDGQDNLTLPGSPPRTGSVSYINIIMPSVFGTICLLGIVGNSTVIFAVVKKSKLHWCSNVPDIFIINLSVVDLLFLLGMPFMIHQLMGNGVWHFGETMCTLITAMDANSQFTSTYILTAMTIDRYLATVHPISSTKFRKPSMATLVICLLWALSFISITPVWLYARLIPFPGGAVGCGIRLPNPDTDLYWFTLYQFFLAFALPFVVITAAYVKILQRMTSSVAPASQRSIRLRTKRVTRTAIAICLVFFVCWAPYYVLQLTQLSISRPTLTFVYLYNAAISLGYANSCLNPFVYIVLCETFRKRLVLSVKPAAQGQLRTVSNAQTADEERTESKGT
Procedure: Pharmacological analyses were conducted using either a HT-PS100 device (Axiom Biotechnologies, San Diego, Calif.), which provides high-resolution dose-response fluorometric measurements of [Ca^++]i mobilization, or using a FLIPR® device (Molecular Devices, Sunnyvale, Calif.).
Materials: Pharmacological analysis was conducted using a FLIPR® device (Molecular Devices, Sunnyvale, Calif.). CHOK1-Gqi cells were stably transfected with the rat MCH1 receptor and maintained under G418 antibiotic pressure. FLIPR® assay buffer consisted of phenol red-free DMEM+2.5 mM probenecid. MCH peptide (Amgen, Inc.) was reconstituted in assay buffer and served as the positive agonist control for all experiments. Test compounds were prepared as 10 mM stocks in 100% DMSO and diluted to a top end working concentration of 10 μM in 96 well black, flat bottom, collagen-I coated plates (Becton Dickinson, Bedford, Mass.).
Methods: CHOK1-Gqi cells stably expressing MCH1R were maintained in Dulbeco's modified Eagle's medium (GIBCO/Life Technologies, Rockville, Md.) supplemented with 2 mM glutamine and 10% dialyzed fetal bovine serum (HyClone, Logan, Utah) at 37° C., 5% CO2. Cells were harvested by 10′ treatment with Versene (GIBCO/Life Technologies) followed by trituration, washing twice with cold (4° C.) hybridoma medium (Serum/Protein free, with L-glutamine, sodium bicarbonate, MOPS buffer) (Sigma-Aldrich Corp, St. Louis, Mo.) and replated onto 96 well black, flat bottom, collagen-I coated plates to a density of 10,000 cells/well. The cells were then loaded with the fluorescent calcium indicator Fura-2 (Molecular Probes, Eugene, Oreg.) at 1.6 μM for 60′ at room temperature. The loaded cells were then washed twice with 90 μl/well of wash buffer (1×HBSS, 20 mM HEPES, 2.5 mM probenecid).
Receptor-stimulated intracellular calcium responses were detected using FLIPR® by monitoring increases in the Fura-2 fluorescence response.
Test compounds were screened for MCH1R activity in the FLIPR® for both agonist and antagonist action. Agonist mode challenges were conducted at a maximum gradient concentration of 1 μM. Antagonist activity was tested by 10 min pre-incubation of cells at a compound concentration of defined to be 300× the EC50 of MCH (typically 1 μM), with subsequent introduction of MCH at a concentration 5-fold of EC50 as determined in preliminary experiments.
Schild experiments were conducted on the FLIPR® for selected compounds by co-administering antagonist compounds together with MCH peptide. Several fixed concentrations of antagonist compounds were prepared in 10-fold increments, and presented to the cells in a gradient of increasing MCH concentration. Values for compound pA2 were calculated by linear regression of MCH EC50s as a function of antagonist concentration.

[2] = target: T3, rat MCH 1 receptor (rMCH1R) (Rattus norvegicus, UniProt P97639); experiment: Ligand binding assay (125I native-MCH), rMCH; details: rMCH1R expressed in HEK 293, membranes, 0.2 nM 125I native-MCH
T3 construct: expressed in transfected cells; host or cells: HEK 293 (membrane preparation)
T3 sequence (P97639 whole entry): as above
Procedure: as §1, §2, §3

human MCH receptor = target: T4, human MCH receptor (Homo sapiens, UniProt Q99705); experiment: hMCH FLIPR calcium mobilization functional assay; assay type: cell-based
T4 construct: expressed in transfected cells
T4 sequence (Q99705 whole entry): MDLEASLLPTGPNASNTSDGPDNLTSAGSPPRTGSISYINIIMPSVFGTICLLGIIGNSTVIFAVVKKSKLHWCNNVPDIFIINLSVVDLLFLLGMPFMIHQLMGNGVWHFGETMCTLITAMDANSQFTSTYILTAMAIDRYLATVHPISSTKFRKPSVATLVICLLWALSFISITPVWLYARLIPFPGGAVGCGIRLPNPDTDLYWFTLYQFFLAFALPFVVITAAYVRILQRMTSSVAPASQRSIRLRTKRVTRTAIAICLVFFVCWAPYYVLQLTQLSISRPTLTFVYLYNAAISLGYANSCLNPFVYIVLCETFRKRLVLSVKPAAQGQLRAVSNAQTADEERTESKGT

T1 sequence (Q99705 whole entry): as above

Row | SMILES | IC50 ([1]; threshold 100 nM or less) | IC50 ([1]; threshold 100 μM or less) | Ki (rat MCH1 receptor; threshold 100 nM or less) | Ki (rat MCH1 receptor; threshold 100 μM or less) | IC50 ([2]; threshold 100 nM or less) | IC50 ([2]; threshold 100 μM or less) | Ki (human MCH receptor; threshold 100 nM or less) | Ki (human MCH receptor; threshold 100 μM or less)
1 | Cc1ccc(Oc2ccc(C(=O)NCCN3CCCC3)cc2NC(=O)Nc2ccccc2)cc1C [Compound 1, 4-[(3,4-dimethylphenyl)oxy]-3-{[(phenylamino)carbonyl]amino}-N-(2-(1-pyrrolidinyl)ethyl)benzamide] | ≤ 0.1 µM | ≤ 100 µM | ≤ 0.1 µM | ≤ 100 µM | ≤ 0.1 µM | ≤ 100 µM | ≤ 0.1 µM | ≤ 100 µM
2 | Cc1ccc(Oc2ccc(C(=O)NCCN3CCCC3)cc2NC(=O)CCc2ccccc2)cc1C [Compound 5, 4-[(3,4-dimethylphenyl)oxy]-3-[(3-phenylpropanoyl)amino]-N-(2-(1-pyrrolidinyl)ethyl)benzamide] |  | ≤ 100 µM |  | ≤ 100 µM |  |  |  | ≤ 100 µM
3 | Cc1ccc(Oc2ccc(C(=O)NCCN3CCCC3)cc2NC(=O)NCc2ccccc2)cc1C [Compound 6, 4-[(3,4-dimethylphenyl)oxy]-3-({[(phenylmethyl)amino]carbonyl}amino)-N-(2-(1-pyrrolidinyl)ethyl)benzamide] | ≤ 0.1 µM | ≤ 100 µM | ≤ 0.1 µM | ≤ 100 µM |  |  | ≤ 0.1 µM | ≤ 100 µM
4 | Cc1ccc(Oc2ccc(C(=O)NCCN3CCCC3)cc2NC(=O)Nc2ccc(C(C)C)cc2)cc1C [Compound 34, 4-(3,4-dimethylphenoxy)-3-[3-(4-isopropylphenyl)ureido]-N-(2-pyrrolidin-1-yl-ethyl)benzamide] | ≤ 0.1 µM | ≤ 100 µM |  | ≤ 100 µM |  | ≤ 100 µM | ≤ 0.1 µM | ≤ 100 µM
5 | Cc1ccc(Oc2ccc(C(=O)NCCN3CCCC3)cc2NC(=O)Nc2c(C)cccc2C)cc1C [Compound 35, 4-(3,4-dimethylphenoxy)-3-[3-(2,6-dimethylphenyl)ureido]-N-(2-pyrrolidin-1-yl-ethyl)benzamide] |  | ≤ 100 µM |  | ≤ 100 µM |  | ≤ 100 µM | ≤ 0.1 µM | ≤ 100 µM
6 | Cc1ccc(Oc2ccc(C(=O)NCCN3CCCC3)cc2NC(=O)Nc2cccc3ccccc23)cc1C [Compound 36, 4-(3,4-dimethylphenoxy)-3-(3-naphthalen-1-yl-ureido)-N-(2-pyrrolidin-1-yl-ethyl)benzamide] | ≤ 0.1 µM | ≤ 100 µM |  | ≤ 100 µM |  | ≤ 100 µM |  | ≤ 100 µM
7 | Cc1ccc(Oc2ccc(C(=O)NCCN3CCCC3)cc2NC(=O)Nc2c(C(C)C)cccc2C(C)C)cc1C [Compound 37, 3-[3-(2,6-diisopropylphenyl)ureido]-4-(3,4-dimethylphenoxy)-N-(2-pyrrolidin-1-yl-ethyl)benzamide] | ≤ 0.1 µM | ≤ 100 µM |  | ≤ 100 µM |  | ≤ 100 µM |  | ≤ 100 µM
8 | Cc1ccc(Oc2ccc(C(=O)NCCN3CCCC3)cc2NC(=O)Nc2ccc(Br)cc2)cc1C [Compound 38, 3-[3-(4-bromophenyl)ureido]-4-(3,4-dimethylpherioxy)-N-(2-pyrrolidin-1-yl-ethyl)benzamide] | ≤ 0.1 µM | ≤ 100 µM | ≤ 0.1 µM | ≤ 100 µM | ≤ 0.1 µM | ≤ 100 µM | ≤ 0.1 µM | ≤ 100 µM
9 | COc1cccc(NC(=O)Nc2cc(C(=O)NCCN3CCCC3)ccc2Oc2ccc(C)c(C)c2)c1 [Compound 40, 4-(3,4-dimethylphenoxy)-3-[3-(3-methoxyphenyl)ureido]-N-(2-pyrrolidin-1-yl-ethyl)benzamide] | ≤ 0.1 µM | ≤ 100 µM | ≤ 0.1 µM | ≤ 100 µM | ≤ 0.1 µM | ≤ 100 µM | ≤ 0.1 µM | ≤ 100 µM
10 | Cc1ccc(Oc2ccc(C(=O)NCCN3CCCC3)cc2NC(=O)Nc2ccccc2Cl)cc1C [Compound 41, 3-[3-(2-chlorophenyl)ureido]-4-(3,4-dimethylphenoxy)-N-(2-pyrrolidin-1-yl-ethyl)benzamide] | ≤ 0.1 µM | ≤ 100 µM | ≤ 0.1 µM | ≤ 100 µM | ≤ 0.1 µM | ≤ 100 µM | ≤ 0.1 µM | ≤ 100 µM
11 | O=C(Nc1cccc(F)c1)Nc1cc(C(=O)NCCN2CCCC2)ccc1Oc1ccc(F)c(F)c1 [Compound 53, 4-(3,4-difluorophenoxy)-3-[3-(3-fluorophenyl)ureido]-N-(2-pyrrolidin-1-yl-ethyl)benzamide] |  |  |  | ≤ 100 µM | ≤ 0.1 µM | ≤ 100 µM |  | ≤ 100 µM
12 | O=C(Nc1cccc(F)c1)Nc1cc(C(=O)NCCN2CCCC2)ccc1Oc1ccc(F)cc1 [Compound 54, 4-(4-fluorophenoxy)-3-[3-(3-fluorophenyl)ureido]-N-(2-pyrrolidin-1-yl-ethyl)benzamide] |  |  |  | ≤ 100 µM | ≤ 0.1 µM | ≤ 100 µM |  | ≤ 100 µM
13 | O=C(Nc1cccc(F)c1)Nc1cc(C(=O)NCCN2CCCC2)ccc1Oc1cccc(F)c1 [Compound 55, 4-(3-fluorophenoxy)-3-[3-(3-fluorophenyl)ureido]-N-(2-pyrrolidin-1-yl-ethyl)benzamide] |  |  |  | ≤ 100 µM | ≤ 0.1 µM | ≤ 100 µM |  | ≤ 100 µM
14 | Cc1ccc(Oc2ccc(C(=O)NCCN3CCCC3)cc2NC(=O)Nc2cccc(F)c2)cc1 [Compound 56, 3-[3-(3-fluorophenyl)ureido]-N-(2-pyrrolidin-1-yl-ethyl)-4-p-tolyloxybenzamide] |  |  |  | ≤ 100 µM | ≤ 0.1 µM | ≤ 100 µM | ≤ 0.1 µM | ≤ 100 µM
15 | Cc1cccc(Oc2ccc(C(=O)NCCN3CCCC3)cc2NC(=O)Nc2cccc(F)c2)c1 [Compound 57] |  |  |  | ≤ 100 µM | ≤ 0.1 µM | ≤ 100 µM | ≤ 0.1 µM | ≤ 100 µM
16 | Cc1ccc(Oc2ccc(C(=O)NCCN3CCCC3)cc2NC(=O)Nc2cc(F)cc(F)c2)cc1C [Compound 58, 3-[3-(3,5-difluorophenyl)ureido]-4-(3,4-dimethylphenoxy)-N-(2-pyrrolidin-1-yl-ethyl)benzamide] | ≤ 0.1 µM | ≤ 100 µM |  | ≤ 100 µM | ≤ 0.1 µM | ≤ 100 µM |  | ≤ 100 µM
